Laboratory results from patent publication US10392422B2, “Macrocyclic broad spectrum antibiotics” (priority 2014, dated 2019).
Values after ≈ are worked out from the molar mass of the structure shown. Where two headings read alike, the source gives them in different places.

How the values were obtained:
Experiment in all cases: MIC, broth micro-dilution technique (CLSI)
[1] = test system: Methicillin Resistant Staphylococcus aureus strain USA 300 (NRS384); format: cell-based; conditions: for MIC: Staphylococcus aureus, 22 h, read-out: MIC (μg/mL) S. aureus
In short: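 Cation-adjusted MHB + 0.002% Tween-80; 10-point 2-fold series starting 64 μg/ml (modified protocol: 4 μg/mL). Final inoculum OD600 0.0005; 35° C, 22 h. MIC per CLSI M07-A8 broth microdilution.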

[2] = test system: Escherichia coli MC4100 harboring the IMP4213; format: cell-based; conditions: 35° C., 22 hours; for MIC: Escherichia coli, 22 h
In short: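 MICs determined after 35 °C, 22 h incubation of bacteria (final OD600 0.0005) with 10-point 2-fold compound series. Series topped at 64 μg/ml in the standard protocol or 4 μg/mL in the modified one. Medium: cation-adjusted Mueller Hinton broth plus 0.002% Tween-80. E. coli MC4100 imp4213 has a permeabilized outer membrane.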

[3] = test system: MRSA COL (NRS100); format: cell-based, Staphylococcus aureus; conditions: for MIC: Staphylococcus aureus, 22 h, read-out: MIC (μg/mL) (COL)
Procedure: In vitro antimicrobial activity of each compound was determined by measuring minimal inhibitor concentrations (MICs) using the broth micro-dilution technique as approved by the Clinical and Laboratory Standards Institute (CLSI) (Methods for Dilution Antimicrobial Susceptibility Tests for Bacteria that Grow Aerobically; Approved Standard—Eighth Edition. CLSI document M07-A8. Wayne, Pa.: Clinical and Laboratory Standards; 2009). Antibacterial activity was measured against three strains of bacteria: a Methicillin Resistant Staphylococcus aureus strain USA 300 (NRS384); a MRSA COL (NRS100), another Methicillin Resistant Staphylococcus aureus strain; and a strain of Escherichia coli MC4100 harboring the IMP4213, which results in increased outer-membrane permeability (B Martin and Silhavy T. Imp/OstA is required for cell envelope biogenesis in Escherichia coli. (2002) Molecular Microbiology, 45(5), 1289-1302). Cells were inoculated onto plates of Trypyticase Soy Agar or Luria Agar respectively and grown at 35° C. for 20 hours. Inocula suspensions were prepared by scraping cells into 1 ml of testing media (cation adjusted Mueller Hinton Broth supplemented with 0.002% v/v Tween-80) and diluting to a final OD600 nm of 0.01.
Test compounds were prepared in DMSO at a concentration of 10 mg/ml. These compound stocks were diluted into testing media at a concentration of 64 μg/ml and serial 2-fold dilutions were made in the same media, in 96-well U bottom microtiter dishes, for a total of 10 compound concentrations (Table 1). In modified protocols (Table 2), compound stocks were diluted into testing media at a concentration of 4 μg/mL and serial 2-fold dilutions were made in the same media, in 96-well U bottom microtiter dishes, for a total of 10 compound concentrations. Inocula suspensions were added to the 2-fold serial dilutions of test compounds to a final density of OD OD600 nm of 0.0005 and incubated at 35° C. for 22 hours. […] The results from the protocol starting from a concentration of 64 µg/mL are listed in Table 1 and the results from the modified protocol are shown in Table 2.

[4] = Table 1 protocol: serial 2-fold dilutions starting from 64 μg/ml, 35° C., 22 hours
[5] = read-out: MIC (μg/mL) E. coli, Table 1 protocol: serial 2-fold dilutions starting from 64 μg/ml
[6] = Table 2 modified protocol: serial 2-fold dilutions starting from 4 μg/mL, 35° C., 22 hours
[7] = Table 2 modified protocol: serial 2-fold dilutions starting from 4 μg/mL

SMILES	MIC [1, 4] [µg/mL]	MIC [2, 5] [µg/mL]	MIC [3, 4] [µg/mL]	also measured
CCCCCCCCCNCCCC(=O)N[C@@H](CCCCN)C(=O)N(C)[C@@H]1C(=O)N[C@@H](C)C(=O)N[C@H](C(=O)N[C@@H](C)C(C)=O)Cc2ccc(O)c(c2)-c2cc1ccc2O [Compound 111]	23 (≈ 28 µM)	> 64	4 (≈ 4.87 µM)	
CCCCCCCCCCNCCS(=O)(=O)N[C@@H](CCCCN)C(=O)N(C)[C@@H]1C(=O)N[C@@H](C)C(=O)N[C@H](C(=O)N[C@@H](C)C(=O)N2CCC[C@H]2C(N)=O)Cc2ccc(O)c(c2)-c2cc1ccc2O [Compound 215]	0.5 (≈ 0.523 µM)	> 64	0.25 (≈ 0.261 µM)	
C[C@@H]1NC(=O)[C@@H](N(C)C(=O)[C@H](CCCCN)NC(=O)c2ccc(-c3ccc(Cl)cc3)cc2)c2ccc(O)c(c2)-c2cc(ccc2O)C[C@@H](C(=O)N[C@@H](C)C(=O)N(C)c2cc[nH]n2)NC1=O [Compound 333]	64 (≈ 70.6 µM)	32 (≈ 35.3 µM)	16 (≈ 17.7 µM)	
CCCCCCCCCCNCCC(=O)N(C)[C@@H]1C(=O)N[C@@H](C)C(=O)N[C@H](C(=O)N[C@@H](C)C(C)=O)Cc2ccc(OCCN)c(c2)-c2cc1ccc2OCCN.O=CO [Compound 268]				MIC (μg/mL) S. aureus [1, 6]: 2.1 µg/mL; MIC (μg/mL) E. coli [2, 7]: 2.5 µg/mL; MIC (μg/mL) (COL) [3, 6]: 1 µg/mL
C[C@@H]1NC(=O)[C@@H](N(C)C(=O)[C@H](CCCCN)NC(=O)c2ccc(-c3ccc(Cl)cc3)cc2)c2ccc(O)c(c2)-c2cc(ccc2O)C[C@@H](C(=O)N[C@@H](C)C(=O)C(=O)Nc2cn[nH]c2)NC1=O [Compound 242]				MIC [1, 6]: > 4 µg/mL; MIC ([2]; read-out: MIC (μg/mL) E. coli, Table 2 modified protocol: serial 2-fold dilutions starting from 4 μg/mL): > 4 µg/mL; MIC [3, 6]: 4 µg/mL (≈ 4.35 µM)
C[C@@H]1NC(=O)[C@@H](N(C)C(=O)[C@H](CCCCN)NC(=O)c2ccc(-c3ccc(Cl)cc3)cc2)c2ccc(O)c(c2)-c2cc(ccc2O)C[C@@H](C(=O)N[C@@H](C)/C=C\S(C)(=O)=O)NC1=O [Compound 145]		> 64		MIC [1]: > 64 µg/mL; MIC [3]: 64 µg/mL (≈ 72.1 µM)
COC(=O)CC(=O)[C@H](C)NC(=O)[C@@H]1Cc2ccc(O)c(c2)-c2cc(ccc2O)[C@H](N(C)C(=O)[C@H](CCCCN)NC(=O)c2ccc(-c3ccc(Cl)cc3)cc2)C(=O)N[C@@H](C)C(=O)N1 [Compound 191]	32 (≈ 36.2 µM)	> 64	8 (≈ 9.06 µM)	
C[C@@H]1NC(=O)[C@@H](N(C)C(=O)[C@H](CCCCN)NC(=O)c2ccc(-c3ccc(Cl)cc3)cc2)c2ccc(O)c(c2)-c2cc(ccc2O)C[C@@H](C(=O)N[C@@H](C)C(=O)C(F)(F)C(N)=O)NC1=O [Compound 228]	5.3 (≈ 5.86 µM)	15 (≈ 16.6 µM)	2 (≈ 2.21 µM)	
C[C@@H]1NC(=O)[C@@H](N(C)C(=O)[C@H](CCCCN)NC(=O)c2ccc(-c3ccc(Cl)cc3)cc2)c2ccc(O)c(c2)-c2cc(ccc2O)C[C@@H](C(=O)N[C@@H](C)C(=O)N2CCCC23CCNC3=O)NC1=O (stereo partly drawn) [Compound 160]	> 64	64 (≈ 67.4 µM)	> 64	
C[C@@H]1NC(=O)[C@@H](N(C)C(=O)[C@H](CCCCN)NC(=O)c2ccc(-c3ccc(Cl)cc3)cc2)c2ccc(O)c(c2)-c2cc(ccc2O)C[C@@H](C(=O)N[C@@H](C)C(=O)c2c[nH]nn2)NC1=O [Compound 230]	64 (≈ 72.9 µM)	> 64	8 (≈ 9.11 µM)	
CCCCCCCCCCNCC(=O)N[C@@H](CCCCN)C(=O)N(C)[C@@H]1C(=O)N[C@@H](C)C(=O)N[C@H](C(=O)N[C@@H](C)C(C)=O)Cc2ccc(O)c(c2)-c2cc1ccc2O [Compound 112]				MIC (μg/mL) S. aureus [1, 4]: 2.8 µg/mL (≈ 3.47 µM); MIC (μg/mL) E. coli ([2]; Table 1 protocol: serial 2-fold dilutions starting from 64 μg/ml): 64 µg/mL (≈ 79.2 µM); MIC (μg/mL) (COL) [3, 4]: 0.5 µg/mL (≈ 0.619 µM)
CCCCCCCCCCCCCC(=O)N(C)[C@@H]1C(=O)N[C@@H](C)C(=O)N[C@H](C(=O)N[C@@H](C)B2O[C@@H]3C[C@@H]4C[C@@H](C4(C)C)[C@]3(C)O2)Cc2ccc(OCCN)c(c2)-c2cc1ccc2OCCN [Compound 315]		1 (≈ 1.09 µM)		MIC [1]: 1 µg/mL (≈ 1.09 µM); MIC [3]: 0.5 µg/mL (≈ 0.546 µM)
CCCCCCCCS(=O)(=O)N[C@@H](CO)C(=O)N(C)[C@@H]1C(=O)N[C@@H](C)C(=O)N[C@H](C(=O)N[C@@H](C)C(C)=O)Cc2ccc(OCCN)c(c2)-c2cc1ccc2OCCN.O=CO [Compound 259]				MIC (μg/mL) S. aureus [1, 6]: 0.75 µg/mL; MIC (μg/mL) E. coli [2, 7]: >4 µg/mL; MIC (μg/mL) (COL) [3, 6]: 0.38 µg/mL
